{"source": "ChEMBL document CHEMBL4602703", "about": "“Lead Optimization of a Pyrrole-Based Dihydroorotate Dehydrogenase Inhibitor Series for the Treatment of Malaria” (J Med Chem, 2020)", "key": {"[1]": {"test": "Intrinsic clearance in human liver microsomes assessed as per mg protein", "format": "ADME, Microsome"}, "[2]": {"test": "Inhibition of yeast DHODH transformed in Plasmodium falciparum D10 in presence of 10 uM proguanil", "parameters": "species or system Saccharomyces cerevisiae"}, "Plasmodium falciparum": {"test_system": "Plasmodium falciparum", "format": "functional, organism-based", "details": "R10C1B, 72 h; call rule not given here"}, "[3]": {"target": "Voltage-gated inwardly rectifying potassium channel KCNH2 (Homo sapiens, UniProt Q12809)", "sequence (Q12809 whole entry)": "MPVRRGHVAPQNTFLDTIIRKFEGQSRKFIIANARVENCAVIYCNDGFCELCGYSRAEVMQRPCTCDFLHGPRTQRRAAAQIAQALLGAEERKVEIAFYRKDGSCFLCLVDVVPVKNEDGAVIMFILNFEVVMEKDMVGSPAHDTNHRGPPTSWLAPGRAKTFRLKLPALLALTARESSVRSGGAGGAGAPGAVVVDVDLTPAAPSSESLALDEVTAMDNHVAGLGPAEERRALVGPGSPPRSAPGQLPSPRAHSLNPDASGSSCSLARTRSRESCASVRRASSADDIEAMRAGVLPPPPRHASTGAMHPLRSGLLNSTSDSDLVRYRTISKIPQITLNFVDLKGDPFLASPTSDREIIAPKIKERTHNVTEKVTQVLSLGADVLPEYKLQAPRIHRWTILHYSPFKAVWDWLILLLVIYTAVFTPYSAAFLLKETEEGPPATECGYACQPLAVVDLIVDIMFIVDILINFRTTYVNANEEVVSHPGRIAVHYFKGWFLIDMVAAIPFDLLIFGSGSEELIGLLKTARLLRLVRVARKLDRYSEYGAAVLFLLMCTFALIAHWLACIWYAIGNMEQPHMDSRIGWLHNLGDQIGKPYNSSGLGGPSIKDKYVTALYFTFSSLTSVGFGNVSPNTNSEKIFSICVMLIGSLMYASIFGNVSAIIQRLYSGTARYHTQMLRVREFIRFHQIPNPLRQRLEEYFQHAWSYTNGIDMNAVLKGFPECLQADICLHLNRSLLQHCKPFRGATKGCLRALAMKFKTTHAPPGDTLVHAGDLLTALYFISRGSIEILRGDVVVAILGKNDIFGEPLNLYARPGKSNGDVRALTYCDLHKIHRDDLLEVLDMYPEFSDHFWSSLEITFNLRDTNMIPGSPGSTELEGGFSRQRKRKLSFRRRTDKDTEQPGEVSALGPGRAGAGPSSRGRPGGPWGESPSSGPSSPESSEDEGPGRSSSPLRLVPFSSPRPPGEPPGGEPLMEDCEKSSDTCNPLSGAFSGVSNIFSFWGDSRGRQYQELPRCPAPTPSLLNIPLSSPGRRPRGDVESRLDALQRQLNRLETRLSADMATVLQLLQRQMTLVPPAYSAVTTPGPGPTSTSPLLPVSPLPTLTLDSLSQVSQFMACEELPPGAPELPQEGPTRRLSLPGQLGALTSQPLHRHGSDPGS", "test": "Inhibition of human ERG by IonWorks patch clamp electrophysiology assay"}, "[4]": {"test": "Protein binding in human plasma by LC-MS analysis based ultracentrifugation assay", "format": "ADME, cell-free", "details": "read-out: PPB (converted)"}, "[5]": {"test": "Protein binding in DMEM medium containing 10% fetal calf serum by LC-MS analysis based ultracentrifugation assay", "format": "ADME, cell-free, Bos taurus", "details": "cattle, DMEM medium containing 10% fetal calf serum; read-out: PB (converted)"}, "Cytochrome P450 1A2 [6]": {"target": "T1, Cytochrome P450 1A2 (Homo sapiens, UniProt P05177)", "T1 sequence (P05177 whole entry)": "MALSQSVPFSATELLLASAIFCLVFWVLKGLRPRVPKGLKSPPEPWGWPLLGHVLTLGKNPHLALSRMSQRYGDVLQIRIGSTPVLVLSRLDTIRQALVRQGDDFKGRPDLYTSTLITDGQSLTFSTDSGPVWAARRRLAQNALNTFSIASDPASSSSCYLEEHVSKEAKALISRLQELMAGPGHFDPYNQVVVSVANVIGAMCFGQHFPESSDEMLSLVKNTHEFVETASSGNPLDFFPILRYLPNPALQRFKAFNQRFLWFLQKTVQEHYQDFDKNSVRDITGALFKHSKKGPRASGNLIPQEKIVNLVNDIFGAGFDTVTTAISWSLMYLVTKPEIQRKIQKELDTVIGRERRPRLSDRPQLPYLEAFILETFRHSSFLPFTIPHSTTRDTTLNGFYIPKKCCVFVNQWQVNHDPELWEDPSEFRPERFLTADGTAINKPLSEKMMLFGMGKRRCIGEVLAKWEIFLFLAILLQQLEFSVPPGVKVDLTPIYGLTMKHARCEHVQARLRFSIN", "test": "Inhibition of CYP1A2 in human liver microsomes using phenacetin as substrate measured for 10 to 30 mins in presence of NADPH regenerating system by UPLC-MS analysis", "format": "ADME"}, "Cytochrome P450 2C19": {"target": "Cytochrome P450 2C19 (Homo sapiens, UniProt P33261)", "sequence (P33261 whole entry)": "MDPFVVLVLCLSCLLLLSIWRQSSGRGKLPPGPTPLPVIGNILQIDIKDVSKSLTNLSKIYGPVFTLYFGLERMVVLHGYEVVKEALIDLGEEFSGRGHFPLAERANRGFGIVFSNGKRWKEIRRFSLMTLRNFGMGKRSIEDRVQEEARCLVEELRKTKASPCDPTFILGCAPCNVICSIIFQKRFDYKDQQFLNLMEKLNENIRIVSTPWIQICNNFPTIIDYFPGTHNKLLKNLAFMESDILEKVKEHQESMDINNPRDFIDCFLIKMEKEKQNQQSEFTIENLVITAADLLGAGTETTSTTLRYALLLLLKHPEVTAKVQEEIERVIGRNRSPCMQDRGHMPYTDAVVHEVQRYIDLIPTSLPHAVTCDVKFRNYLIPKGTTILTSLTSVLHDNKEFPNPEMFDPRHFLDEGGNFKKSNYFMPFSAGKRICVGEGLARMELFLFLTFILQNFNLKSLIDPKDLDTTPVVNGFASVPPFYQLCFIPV", "test": "Inhibition of CYP2C19 in human liver microsomes using (S)-mephenytoin as substrate measured for 10 to 30 mins in presence of NADPH regenerating system by UPLC-MS analysis", "format": "ADME"}, "Cytochrome P450 2D6 [7]": {"target": "T2, Cytochrome P450 2D6 (Homo sapiens, UniProt P10635)", "T2 sequence (P10635 whole entry)": "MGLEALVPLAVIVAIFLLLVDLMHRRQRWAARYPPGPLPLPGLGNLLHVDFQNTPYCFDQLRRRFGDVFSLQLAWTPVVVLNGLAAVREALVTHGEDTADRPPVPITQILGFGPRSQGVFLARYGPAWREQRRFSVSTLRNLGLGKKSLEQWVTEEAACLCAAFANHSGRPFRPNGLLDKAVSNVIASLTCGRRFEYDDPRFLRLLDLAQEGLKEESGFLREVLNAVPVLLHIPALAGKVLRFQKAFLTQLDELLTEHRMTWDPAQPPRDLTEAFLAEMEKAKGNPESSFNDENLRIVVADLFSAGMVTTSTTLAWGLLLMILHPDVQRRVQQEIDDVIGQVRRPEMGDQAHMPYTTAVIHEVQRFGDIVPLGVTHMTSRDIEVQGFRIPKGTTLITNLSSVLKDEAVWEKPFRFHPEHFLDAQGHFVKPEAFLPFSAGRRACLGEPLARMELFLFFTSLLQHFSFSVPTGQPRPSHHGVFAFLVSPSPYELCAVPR", "test": "Inhibition of CYP2D6 in human liver microsomes using dextromethorphan as substrate measured for 10 to 30 mins in presence of NADPH regenerating system by UPLC-MS analysis", "format": "ADME"}, "[8]": {"test": "Apparent half life in Swiss mouse at […], iv administered as bolus dose measured up to 24 hrs by UPLC-MS analysis", "format": "ADME, organism-based", "details": "in vivo"}, "[9]": {"test": "Cmax in Swiss mouse at 10.5 mg/kg, po via gavage measured up to 24 hrs by UPLC-MS analysis", "format": "ADME, organism-based", "parameters": "dose 10.5 mg/kg, route oral", "details": "in vivo"}, "[10]": {"test": "Apparent half life in Swiss mouse at 18.3 mg/kg, po via gavage measured up to 24 hrs by UPLC-MS analysis", "format": "ADME, organism-based", "details": "in vivo"}, "[11]": {"test": "Cmax in Swiss mouse at 50 mg/kg, po via gavage measured up to 24 hrs by UPLC-MS analysis", "format": "ADME, organism-based", "parameters": "dose 50 mg/kg, route oral", "details": "in vivo"}, "[12]": {"test": "AUC (0 to infinity) in Swiss mouse at 50 mg/kg, po via gavage measured up to 24 hrs by UPLC-MS analysis", "format": "ADME, organism-based", "parameters": "dose 50 mg/kg, route oral, time infinity", "details": "in vivo"}, "[13]": {"test": "Oral bioavailability in Swiss mouse at 50 mg/kg dosed via gavage measured up to 24 hrs by UPLC-MS analysis", "format": "ADME, organism-based", "details": "in vivo"}, "[14]": {"test": "Apparent half life in Sprague-Dawley rat at 3 mg/kg, po administered via gavage measured up to 24 hrs by LC-MS analysis", "format": "ADME, organism-based", "details": "in vivo"}, "[15]": {"test": "AUC (0 to infinity) in Sprague-Dawley rat at 3 mg/kg, po administered via gavage measured up to 24 hrs by LC-MS analysis", "format": "ADME, organism-based", "parameters": "dose 3 mg/kg, route oral, time infinity", "details": "in vivo"}, "[16]": {"test": "Cmax in NOD-SCID IL2Rgamma null mouse blood infected with Plasmodium falciparum 3D70087/N9 at 10 mg/kg, po qd for 4 days starting from 3 days post infection and measured after 24 hrs post dose by LC-MS/MS analysis", "format": "ADME, organism-based", "parameters": "dose 10 mg/kg, route oral"}, "[17]": {"test": "AUC (0 to 23 hrs) in NOD-SCID IL2Rgamma null mouse blood infected with Plasmodium falciparum 3D70087/N9 at 50 mg/kg, po qd for 4 days starting from 3 days post infection and measured after 24 hrs post dose by LC-MS/MS analysis", "format": "ADME, organism-based", "parameters": "dose 50 mg/kg, time < 23 hr, route oral"}, "[18]": {"test": "fAUC in Plasmodium falciparum 3D70087/N9 infected po dosed NOD-SCID IL2Rgamma null mouse blood administered once daily for 4 days", "format": "ADME, organism-based", "details": "in vivo, 96 h"}, "Cytochrome P450 2C9": {"target": "Cytochrome P450 2C9 (Homo sapiens, UniProt P11712)", "sequence (P11712 whole entry)": "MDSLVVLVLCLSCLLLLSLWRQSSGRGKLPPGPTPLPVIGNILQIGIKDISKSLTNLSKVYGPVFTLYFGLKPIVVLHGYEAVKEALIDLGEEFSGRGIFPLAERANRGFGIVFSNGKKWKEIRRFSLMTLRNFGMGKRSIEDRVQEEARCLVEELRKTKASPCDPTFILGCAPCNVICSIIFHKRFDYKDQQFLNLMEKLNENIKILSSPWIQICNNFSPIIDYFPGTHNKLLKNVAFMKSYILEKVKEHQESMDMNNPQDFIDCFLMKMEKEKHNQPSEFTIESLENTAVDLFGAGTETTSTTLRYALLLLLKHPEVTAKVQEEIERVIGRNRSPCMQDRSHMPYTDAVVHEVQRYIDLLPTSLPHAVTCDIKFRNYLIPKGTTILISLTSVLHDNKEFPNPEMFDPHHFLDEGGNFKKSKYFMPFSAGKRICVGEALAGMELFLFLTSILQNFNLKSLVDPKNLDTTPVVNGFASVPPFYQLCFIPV", "test": "Time-dependent inhibition of CYP2C9 in human liver microsomes using tolbutamide as substrate in presence of NADPH regenerating system by UPLC-MS analysis", "format": "ADME"}, "Cytochrome P450 2D6 [19]": {"target": "T2, Cytochrome P450 2D6", "test": "Time-dependent inhibition of CYP2D6 in human liver microsomes using dextromethorphan as substrate in presence of NADPH regenerating system by UPLC-MS analysis", "format": "ADME"}, "Cytochrome P450 1A2 [20]": {"target": "T1, Cytochrome P450 1A2", "test": "Time-dependent inhibition of CYP1A2 in human liver microsomes using phenacetin as substrate in absence of NADPH regenerating system by UPLC-MS analysis", "format": "ADME"}, "Cytochrome P450 2D6 [21]": {"target": "T2, Cytochrome P450 2D6", "test": "Time-dependent inhibition of CYP2D6 in human liver microsomes using dextromethorphan as substrate in absence of NADPH regenerating system by UPLC-MS analysis", "format": "ADME"}, "[22]": {"test": "Toxicity in Plasmodium falciparum 3D70087/N9 infected NOD-SCID IL2Rgamma null mouse assessed as death at 10 mg/kg, po administered once daily for 4 days measured 24 hrs post dose", "format": "organism-based", "details": "in vivo"}, "[23]": {"test": "Toxicity in Plasmodium falciparum 3D70087/N9 infected NOD-SCID IL2Rgamma null mouse at 50 mg/kg, po administered once daily for 4 days measured 24 hrs post dose", "format": "organism-based", "details": "in vivo"}, "[24]": {"details": "simulated gi fluid, pH 1.6"}, "physchem": {"test": "physchem", "details": "octanol/water, pH 7.4"}, "CYP3A4/5": {"target": "CYP3A4/5 (Homo sapiens, UniProt P08684+P20815)", "test": "in vitro", "details": "liver microsomes, probe testosterone"}, "[25]": {"test": "Intrinsic clearance in liver microsomes assessed as per mg protein", "details": "read-out: CLH"}, "[26]": {"test": "Cmax in Swiss mouse blood at 10.5 mg/kg, po via gavage measured up to 24 hrs by UPLC-MS analysis", "details": "in vivo"}, "[27]": {"test": "Cmax in NOD-SCID IL2Rgamma null mouse blood infected with Plasmodium falciparum 3D70087/N9 at 50 mg/kg, po qd for 4 days starting from 3 days post infection and measured after 24 hrs post dose by LC-MS/MS analysis"}}}
{"compound": "Cc1c(Cc2ccc(C(F)(F)F)nc2)c[nH]c1C(=O)NC1CC1", "values": [{"measurement": "microsomal CLint", "setting": "[1]", "value": 10, "unit": "µL/min/mg"}, {"measurement": "EC50", "setting": "[2]", "value": "> 20", "unit": "µM"}, {"measurement": "EC50", "setting": "Plasmodium falciparum", "value": 0.024, "unit": "µM"}, {"measurement": "EC50", "setting": "[3]", "value": "> 33", "unit": "µM"}, {"measurement": "fraction unbound", "setting": "[4]", "value": 0.1}, {"measurement": "fraction unbound", "setting": "[5]", "value": 0.685}, {"measurement": "IC50", "setting": "Cytochrome P450 1A2 [6]", "value": "> 20", "unit": "µM"}, {"measurement": "IC50", "setting": "Cytochrome P450 2C19", "value": "> 20", "unit": "µM"}, {"measurement": "IC50", "setting": "Cytochrome P450 2D6 [7]", "value": "> 20", "unit": "µM"}, {"measurement": "t1/2(app)", "setting": "[8]", "value": 2.8, "unit": "h"}, {"measurement": "Cmax", "setting": "[9]", "value": 4.6, "unit": "µM"}, {"measurement": "t1/2(app)", "setting": "[10]", "value": 2.6, "unit": "h"}, {"measurement": "Cmax", "setting": "[11]", "value": 42.3, "unit": "µM"}, {"measurement": "AUC", "setting": "[12]", "value": 220, "unit": "µM·h"}, {"measurement": "F", "setting": "[13]", "value": "> 100", "unit": "%"}, {"measurement": "t1/2(app)", "setting": "[14]", "value": 3.9, "unit": "h"}, {"measurement": "AUC", "setting": "[15]", "value": 5.1, "unit": "µM·h"}, {"measurement": "Cmax", "setting": "[16]", "value": 0.6, "unit": "µM"}, {"measurement": "AUC at 23 h", "setting": "[17]", "value": 26.7, "unit": "µM·h"}, {"measurement": "fAUC", "setting": "[18]", "value": 1100, "unit": "ng·h/mL"}, {"measurement": "TDI", "setting": "Cytochrome P450 2C9", "value": "Not Active"}, {"measurement": "TDI", "setting": "Cytochrome P450 2D6 [19]", "value": "Not Active"}, {"measurement": "TDI", "setting": "Cytochrome P450 1A2 [20]", "value": "Not Active"}, {"measurement": "TDI", "setting": "Cytochrome P450 2D6 [21]", "value": "Active"}, {"measurement": "Activity", "setting": "[22]", "value": "Toxic"}, {"measurement": "Activity", "setting": "[23]", "value": "Toxic"}, {"measurement": "solubility", "setting": "[24]", "value": 46.4, "unit": "µg/mL"}, {"measurement": "logD", "setting": "physchem", "value": 2.8}, {"measurement": "IC50", "setting": "CYP3A4/5", "value": 5.5, "unit": "µM"}, {"measurement": "microsomal CLint", "setting": "[25]", "value": 24, "unit": "µL/min/mg"}, {"measurement": "Cmax", "setting": "[26]", "value": 3.7, "unit": "µM"}, {"measurement": "Cmax", "setting": "[27]", "value": 7.81, "unit": "µM"}]}
